Data from paper PMC10152543 (Journal of medicinal chemistry, 2022).

Test: Parallel artificial membrane permeability assay
Type: in vitro ADME
Conditions: result in words

| Structure (SMILES) | permeability by PAMPA |
| --- | --- |
| O=C(NC1CCCC1)[C@@H]1CCCCOc2cccc(c2)C[C@H](N2CCCC2=O)C(=O)N[C@@H](CCN2CCOCC2)C(=O)N1 [TDI8304] | modest |
| Cc1ccc(CNC(=O)[C@@H]2Cc3cccc(c3)Oc3cccc(c3)C[C@H](N)C(=O)N[C@@H](CCc3ccccc3)C(=O)N2)cc1 [CP1, (5S,8S,11S)-11-amino-N-(4-methylbenzyl)-7,10-dioxo-8-phenethyl-2-oxa-6,9-diaza-1,3(1,3)-dibenzenacyclododecaphane-5-carboxamide] | undetectable |
